Results as given in patent US9149426B2, “Nanoparticle composition and methods to make and use the same” (priority 2012, dated 2015).

Key:
[1] = at 25° C.; cited from earlier work
[2] = Solubility of organic phase solvents in water or poly(ortho ester) polymer
HEK-293 cells = assay: In vitro cytotoxicity, MTT assay; details: 1% Triton-X 100, 80 μM H2O2, 48 h
Method: The amount of lactic acid release was quantified by using lactate assay kit (BioVision Inc., Milpitas, Calif.) following manufacturer's specifications. […] Forty microliters of MTT reagent (5 mg/ml in phosphate buffered saline) was added to each well. After 2 h of incubation at 37° C., 200 μl of dimethylsulfoxide (DMSO) was added to each well to dissolve the formazan crystals. After 5 minutes, the optical absorbance was measured at 570 nm and converted to percent viability relative to control (untreated) cells. All samples were tested in quadruplicate.
One hundred microliters of diluted nanoparticles (0.1, 0.2, 0.3, 0.4, 0.5, 0.6, and 1 mg/ml) stock solution was added to each well and incubated with the cells for 48 h, and then replaced with growth medium (160 μl). MTT reagent (40 μl) was added to each well to form formazan. After 2 h of incubation at 37° C., 200 μl of dimethylsulfoxide (DMSO) was added to each well to dissolve the formazan crystals. After 5 m optical absorbance was measured at 570 nm and converted to percent viability relative to control (untreated) cells (n=4).

Xenopus laevis frogs = assay: Effective dose in in vitro studies using frogs

Row | Compound | Solubility in water [1] | Solubility of POE (poly(ortho ester) polymer) in the organic phase solvent [2] | Cell viability of positive controls (HEK-293 cells) | also measured
1 | CC(C)=O [Acetone] | Very soluble | Immiscible |  | 
2 | ClCCl [Dichloromethane] | Immiscible (1.6% (w/w) | Excellent solvent |  | 
3 | CCOC(C)=O [Ethyl acetate] | (8.7% (w/w) |  |  | 
4 | OO [H2O2] |  |  | 8% | 
5 | Triton-X 100 |  |  | 5% | 
6 | asialo, galactosylated, triantennary (NA3) oligosaccharides |  |  |  | Effective dose in vitro (Xenopus laevis frogs): 1 nM
